ChEMBL document CHEMBL4765314, “Rational design and biological evaluation of gemfibrozil modified Xenopus GLP-1 derivatives as long-acting hypoglycemic agents” (Eur J Med Chem, 2020)
Calls of active or inactive are those of the source. The rule behind the calls is not given here. Starred links: 1 amine or outer side, 2 acyl side, 3 side chain; linkers in the order of their positions; H or OH if unused. Residues, ends and D or L forms follow the SMILES beside them. Groups on a side chain read outwards from the residue. *: point of attachment. Glycoloyl(O-gemfibrozoyl) = Cc1ccc(C)c(OCCCC(C)(C)C(=O)OCC(=O)*)c1; γGlu = O=C(O)[C@H](CCC(=O)[*:2])N[*:1]; Aun = NCCCCCCCCCCC(=O)O; Ahx = NCCCCCC(=O)O

How the values were obtained:
[1] = biological target: Glucagon-like peptide 1 receptor (Homo sapiens, UniProt P43220); assay: Agonist activity at human GLP-1R expressed in HEK293 cells assessed as stimulation of cAMP accumulation incubated for 60 mins by HTRF assay; type: functional, cell-based
Mus musculus = assay: Hypoglycemic activity in 12 hrs fasted ICR mouse assessed as reduction in blood glucose level at 25 nmol/kg, ip dosed 30 mins before glucose challenge measured up to 120 mins by OGTT method; type: functional, organism-based; settings: time 150.0 min
[2] = Stability in Sprague-Dawley rat plasma at 1000 ng/ml measured up to 48 hrs under shaking condition by LC-MS/MS analysis; type: ADME, cell-free

Sequence of Glucagon-like peptide 1 receptor (P43220 whole entry): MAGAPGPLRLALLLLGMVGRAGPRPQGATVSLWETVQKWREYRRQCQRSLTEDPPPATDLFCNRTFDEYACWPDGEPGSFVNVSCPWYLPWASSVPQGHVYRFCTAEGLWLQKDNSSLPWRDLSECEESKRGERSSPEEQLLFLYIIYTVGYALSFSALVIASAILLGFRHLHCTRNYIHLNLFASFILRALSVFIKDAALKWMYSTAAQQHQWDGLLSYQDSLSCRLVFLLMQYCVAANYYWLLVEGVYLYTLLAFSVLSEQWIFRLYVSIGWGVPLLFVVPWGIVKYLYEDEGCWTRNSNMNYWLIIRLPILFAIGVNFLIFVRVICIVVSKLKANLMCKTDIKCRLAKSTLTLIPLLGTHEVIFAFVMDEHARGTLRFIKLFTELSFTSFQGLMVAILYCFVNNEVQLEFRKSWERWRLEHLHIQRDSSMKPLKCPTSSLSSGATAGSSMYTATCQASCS

| EC50 [1] [nM] | Stabilty [2] | Structure (SMILES) | Activity (Mus musculus) |
| --- | --- | --- | --- |
| 0.21 | Stable | CC[C@H](C)[C@H](NC(=O)[C@H](CC(C)C)NC(=O)[C@H](Cc1c[nH]c2ccccc12)NC(=O)[C@H](CCC(=O)O)NC(=O)[C@@H](NC(=O)[C@H](Cc1ccccc1)NC(=O)[C@H](CCC(=O)O)NC(=O)[C@H](CCCCN)NC(=O)[C@H](C)NC(=O)[C@H](C)NC(=O)[C@H](CCC(=O)O)NC(=O)[C@H](CCC(=O)O)NC(=O)[C@H](CCC(=O)O)NC(=O)[C@H](CC(C)C)NC(=O)[C@H](Cc1ccc(O)cc1)NC(=O)[C@H](CCC(=O)O)NC(=O)[C@@H](NC(=O)[C@@H](NC(=O)[C@H](CC(=O)O)NC(=O)[C@H](CC(N)=O)NC(=O)[C@@H](NC(=O)[C@H](Cc1ccc(O)cc1)NC(=O)[C@@H](NC(=O)CNC(=O)[C@H](CCC(=O)O)NC(=O)CNC(=O)[C@@H](N)Cc1cnc[nH]1)[C@@H](C)O)[C@@H](C)O)C(C)C)[C@@H](C)O)[C@@H](C)CC)C(=O)N[C@@H](CCCCNC(=O)CC[C@H](NC(=O)CCCCCNC(=O)COC(=O)C(C)(C)CCCOc1cc(C)ccc1C)C(=O)O)C(=O)NCC(=O)N[C@@H](CCCCN)C(=O)O (H-HGEGTYTNDVTEYLEEEAAKEFIEWLIK([γGlu-Ahx-Glycoloyl(O-gemfibrozoyl)])GK-OH) | Active |
| 0.21 | Stable | CC[C@H](C)[C@H](NC(=O)[C@H](CC(C)C)NC(=O)[C@H](Cc1c[nH]c2ccccc12)NC(=O)[C@H](CCC(=O)O)NC(=O)[C@@H](NC(=O)[C@H](Cc1ccccc1)NC(=O)[C@H](CCC(=O)O)NC(=O)[C@H](CCCCN)NC(=O)[C@H](C)NC(=O)[C@H](C)NC(=O)[C@H](CCC(=O)O)NC(=O)[C@H](CCC(=O)O)NC(=O)[C@H](CCC(=O)O)NC(=O)[C@H](CC(C)C)NC(=O)[C@H](Cc1ccc(O)cc1)NC(=O)[C@H](CCC(=O)O)NC(=O)[C@@H](NC(=O)[C@@H](NC(=O)[C@H](CC(=O)O)NC(=O)[C@H](CC(N)=O)NC(=O)[C@@H](NC(=O)[C@H](Cc1ccc(O)cc1)NC(=O)[C@@H](NC(=O)CNC(=O)[C@H](CCC(=O)O)NC(=O)CNC(=O)[C@@H](N)Cc1cnc[nH]1)[C@@H](C)O)[C@@H](C)O)C(C)C)[C@@H](C)O)[C@@H](C)CC)C(=O)N[C@@H](CCCCNC(=O)CC[C@H](NC(=O)CCCCCCCCCCNC(=O)COC(=O)C(C)(C)CCCOc1cc(C)ccc1C)C(=O)O)C(=O)NCC(=O)N[C@@H](CCCCN)C(=O)O (H-HGEGTYTNDVTEYLEEEAAKEFIEWLIK([γGlu-Aun-Glycoloyl(O-gemfibrozoyl)])GK-OH) | Active |
| 0.21 | Stable | CC[C@H](C)[C@H](NC(=O)[C@H](CC(C)C)NC(=O)[C@H](Cc1c[nH]c2ccccc12)NC(=O)[C@H](CCC(=O)O)NC(=O)[C@@H](NC(=O)[C@H](Cc1ccccc1)NC(=O)[C@H](CCC(=O)O)NC(=O)[C@H](CCCCN)NC(=O)[C@H](C)NC(=O)[C@H](C)NC(=O)[C@H](CCC(=O)O)NC(=O)[C@H](CCC(=O)O)NC(=O)[C@H](CCC(=O)O)NC(=O)[C@H](CC(C)C)NC(=O)[C@H](Cc1ccc(O)cc1)NC(=O)[C@H](CCC(=O)O)NC(=O)[C@@H](NC(=O)[C@@H](NC(=O)[C@H](CC(=O)O)NC(=O)[C@H](CC(N)=O)NC(=O)[C@@H](NC(=O)[C@H](Cc1ccc(O)cc1)NC(=O)[C@@H](NC(=O)CNC(=O)[C@H](CCC(=O)O)NC(=O)CNC(=O)[C@@H](N)Cc1cnc[nH]1)[C@@H](C)O)[C@@H](C)O)C(C)C)[C@@H](C)O)[C@@H](C)CC)C(=O)N[C@@H](CCCCNC(=O)CC[C@H](NC(=O)COC(=O)C(C)(C)CCCOc1cc(C)ccc1C)C(=O)O)C(=O)NCC(=O)N[C@@H](CCCCN)C(=O)O (H-HGEGTYTNDVTEYLEEEAAKEFIEWLIK([γGlu-Glycoloyl(O-gemfibrozoyl)])GK-OH) | Active |
